Assay results as given in BigSolDB 2.1.

Conditions: in water

| solubility (mole fraction) (293.15 K) | solubility (mole fraction) (298.15 K) | solubility (mole fraction) (303.15 K) | solubility (mole fraction) (308.15 K) | solubility (mole fraction) (313.15 K) | solubility (mole fraction) (318.15 K) | solubility (mole fraction) (323.15 K) | Compound |
| --- | --- | --- | --- | --- | --- | --- | --- |
| 2.02e-05 | 2.27e-05 | 2.54e-05 | 2.92e-05 | 3.38e-05 | 3.93e-05 | 4.69e-05 | CCn1cc(C(=O)O)c(=O)c2cc(F)c(N3CCNCC3)cc21 |
| 3.48e-05 | 3.77e-05 | 4.33e-05 | 4.9e-05 | 5.63e-05 | 6.54e-05 | 7.57e-05 | CCn1cc(C(=O)O)c(=O)c2cc(F)c(N3CCNC(C)C3)c(F)c21 (stereo unspecified) |
| 1.85e-05 | 2.04e-05 | 2.3e-05 | 2.63e-05 | 3.02e-05 | 3.4e-05 | 3.83e-05 | CCn1cc(C(=O)O)c(=O)c2cnc(N3CCNCC3)nc21 |
